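These data come from cells grown in 96-well plates and exposed to compound for 48 hours at five concentrations. TGI is the concentration that stops growth completely.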

Test systems include SR leukemia; OVCAR-5 ovarian; UO-31 renal; MALME-3M melanoma; NCI-H522 lung; U251 CNS; OVCAR-4 ovarian; HOP-92 NSCLC.
Holding throughout (assay): NCI-60 cell line screen, 48 h

Regarding `O=C(c1ccccc1)c1ccc2[nH]c(-c3c(Cl)c(Cl)c(Cl)c(Cl)c3C(=O)N/N=C/c3cccc(Oc4ccccc4)c3)nc2c1`, the TGI in the assay with SR leukemia, in the assay on OVCAR-5 ovarian, with UO-31 renal, in the assay on MALME-3M melanoma, in the assay with NCI-H522 lung and with U251 CNS was more than 100 µM throughout. The TGI in the assay on OVCAR-4 ovarian and in the assay with HOP-92 NSCLC was more than 100 µM throughout.
As for `CC(=O)OCC1OC(Nn2c(=O)[nH]c3ccccc3c2=O)C(OC(C)=O)C(OC(C)=O)C1OC(C)=O` (stereo unspecified), the TGI in the assay with SR leukemia, with OVCAR-5 ovarian, in the assay on UO-31 renal, in the assay with MALME-3M melanoma, in the assay with NCI-H522 lung and with U251 CNS was more than 100 µM in each case. Further, the TGI in the assay with HOP-92 NSCLC is more than 100 µM.
Regarding `NCCCC[C@H](N)C(=O)Nc1ccc(-c2nc3ccccc3s2)cc1`, the TGI in the assay on SR leukemia stood at 36.2 µM; in the assay with OVCAR-5 ovarian, 33.2 µM; with UO-31 renal it was 26 µM; with MALME-3M melanoma, 34.9 µM; with NCI-H522 lung, 33.9 µM; with U251 CNS, 29.4 µM. The TGI with OVCAR-4 ovarian and in the assay on HOP-92 NSCLC was more than 100 µM each time.
Consider `O=C1CSC(c2ccccc2[N+](=O)[O-])N1c1ccc(-c2ccc(-n3c(-c4ccccc4)nc4ccccc4c3=O)cc2)cc1` (stereo unspecified), for which the TGI in the assay with SR leukemia, in the assay on OVCAR-5 ovarian, with UO-31 renal, in the assay on MALME-3M melanoma, in the assay with NCI-H522 lung and in the assay on U251 CNS was more than 100 µM in each case. Moreover, the TGI with OVCAR-4 ovarian and in the assay with HOP-92 NSCLC was more than 100 µM each time.
As to `O=c1ccn(COC(COCc2ccccc2)COCc2ccccc2)c(=O)[nH]1`, the TGI in the assay on SR leukemia, in the assay on OVCAR-5 ovarian, in the assay on UO-31 renal, with MALME-3M melanoma, in the assay with U251 CNS and in the assay with OVCAR-4 ovarian was more than 100 µM each time. This compound also displayed a TGI in the assay on HOP-92 NSCLC of more than 100 µM.
In the case of `COC1CC(COCc2ccccc2)CC(OC)O1` (stereo unspecified), the TGI in the assay on SR leukemia, in the assay on OVCAR-5 ovarian, with UO-31 renal, in the assay on NCI-H522 lung and in the assay on HOP-92 NSCLC was more than 100 µM each time.
For `COc1ccccc1C1ON=C(c2ccc([N+](=O)[O-])cc2)N1C12CC3CC(CC(C3)C1)C2` (stereo unspecified), the TGI in the assay with SR leukemia, in the assay with OVCAR-5 ovarian, with UO-31 renal, in the assay on MALME-3M melanoma, in the assay with NCI-H522 lung and with U251 CNS was more than 100 µM in each case. For the same compound, the TGI with OVCAR-4 ovarian and in the assay with HOP-92 NSCLC was more than 100 µM in each case.
As for `CN1C(=O)C2(C=CC(O)CC2)c2ccccc21` (stereo unspecified), the TGI in the assay with SR leukemia, with OVCAR-5 ovarian, in the assay with UO-31 renal, in the assay with NCI-H522 lung, in the assay with U251 CNS and with OVCAR-4 ovarian was more than 100 µM each time. Also, the TGI in the assay on HOP-92 NSCLC was more than 100 µM.
`COC(=O)C1(C#N)C(C)(C)N=C(c2ccccc2)C12CCCCC2` (stereo unspecified): the TGI in the assay on SR leukemia, in the assay with OVCAR-5 ovarian, in the assay with UO-31 renal, with MALME-3M melanoma, with NCI-H522 lung and in the assay on U251 CNS was more than 100 µM throughout. Also, the TGI in the assay with OVCAR-4 ovarian and with HOP-92 NSCLC was more than 100 µM throughout.
In the case of `O=C1C(=O)N(c2cccc(C(F)(F)F)c2)C(=S)N1c1ccccc1`, the TGI with SR leukemia is more than 100 µM; with OVCAR-5 ovarian, 80.5 µM; in the assay with UO-31 renal it was 86.5 µM; in the assay on MALME-3M melanoma, more than 100 µM; in the assay on NCI-H522 lung, 28 µM; in the assay with U251 CNS, more than 100 µM. For the same compound, the TGI was more than 100 µM with OVCAR-4 ovarian and 50.7 µM with HOP-92 NSCLC.
As to `C/C=C(\C)C(O)C(C)C(O)C/C=C(C)/C=C(\C)C/C(C)=C/C/C=C(\C)C(O)C(C)c1ccc(CCC)c(=O)o1` (stereo unspecified), the TGI in the assay on SR leukemia is more than 100 µM; in the assay on OVCAR-5 ovarian it was 37.9 µM; in the assay with UO-31 renal, 21 µM; in the assay on MALME-3M melanoma, 27.1 µM; in the assay on NCI-H522 lung it was 17.2 µM; in the assay on U251 CNS, 24.1 µM. Besides, the TGI was determined as 65.4 µM in the assay with OVCAR-4 ovarian and 44 µM with HOP-92 NSCLC.
As to `CS(=O)(=O)c1ccc(N=C/C=C/Nc2ccc(S(C)(=O)=O)cc2)cc1`, the TGI in the assay on SR leukemia, in the assay on OVCAR-5 ovarian, in the assay on UO-31 renal, with MALME-3M melanoma, in the assay on NCI-H522 lung and in the assay with U251 CNS was more than 100 µM in each case. Besides, the TGI with OVCAR-4 ovarian and in the assay with HOP-92 NSCLC was more than 100 µM each time.
Consider `CC[C@@]1(C)CCC2c3ccc(O)cc3CC[C@H]2C1C` (stereo partly specified), for which the TGI was found to be 31.6 µM in the assay on SR leukemia; 33.3 µM in the assay with OVCAR-5 ovarian; 30.4 µM in the assay with UO-31 renal; 30.5 µM with MALME-3M melanoma; 36.1 µM in the assay with NCI-H522 lung; 30.9 µM with U251 CNS. Also, the TGI with OVCAR-4 ovarian stood at 35.7 µM; in the assay with HOP-92 NSCLC, 19.5 µM.
Turning to `CC(C)=CCC/C(C)=C/CC/C(C)=C/CC/C(C)=C/CC/C(C)=C/CC/C(C)=C/CC/C(C)=C/CC/C(C)=C/CC/C(C)=C/CO`, the TGI in the assay with SR leukemia, in the assay with OVCAR-5 ovarian, with UO-31 renal, with MALME-3M melanoma, in the assay with NCI-H522 lung and in the assay on U251 CNS was more than 100 µM each time. The TGI in the assay with OVCAR-4 ovarian and in the assay with HOP-92 NSCLC was more than 100 µM throughout.
On to `COC(=O)c1cc(C(=CCC[C@H]2CC[C@@]3(C)C(CCC4C3CC[C@@]3(C)C4CC[C@@H]3C(C)CCCC(C)C)C2)c2cc(Cl)c(O)c(C(=O)OC)c2)cc(Cl)c1O` (stereo partly specified), for which the TGI in the assay with SR leukemia, in the assay on OVCAR-5 ovarian, in the assay on UO-31 renal, in the assay with MALME-3M melanoma, with NCI-H522 lung and in the assay on U251 CNS was more than 10 µM throughout. Further, the TGI in the assay on OVCAR-4 ovarian and in the assay with HOP-92 NSCLC was more than 10 µM throughout.
On to `CC(=O)O[C@H]1CC[C@@]2(C)C(=CC[C@@H]3[C@@H]2CC[C@]2(C)c4c(C)nn(-c5ccccc5)c4C[C@@H]32)C1`, for which the TGI in the assay on SR leukemia is 65 µM; in the assay with OVCAR-5 ovarian it was 68.1 µM; in the assay on UO-31 renal, 47.3 µM; in the assay on NCI-H522 lung it was 45.3 µM; in the assay on U251 CNS it was more than 100 µM; in the assay on OVCAR-4 ovarian, more than 100 µM. For the same compound, the TGI with HOP-92 NSCLC amounted to 70.8 µM.
For `NC(=O)Cc1nc2c(N)ncnc2n1C1OC(CO)C(O)C1O` (stereo unspecified), the TGI in the assay with SR leukemia, in the assay on UO-31 renal, in the assay with MALME-3M melanoma, in the assay on NCI-H522 lung, in the assay on U251 CNS and in the assay with OVCAR-4 ovarian was more than 100 µM throughout. In the assay with HOP-92 NSCLC, this compound returned a TGI of more than 100 µM.
As for `Cc1c2c(c(O)c3c(O)cccc13)C(=O)C1(O)C(O)=C(C(=O)NCNc3ccc(C(N)=O)cn3)C(=O)C(N(C)C)C1C2` (stereo unspecified), the TGI in the assay with SR leukemia is 9.53 µM; with OVCAR-5 ovarian, 34.2 µM; in the assay with MALME-3M melanoma, more than 100 µM; with U251 CNS, 18.5 µM; in the assay on OVCAR-4 ovarian, 5.85 µM; with HOP-92 NSCLC, 6.92 µM.
`CC(C)NC(=O)N(Nc1ccccc1)C(C)(C)C`: the TGI with SR leukemia, with OVCAR-5 ovarian, in the assay on UO-31 renal, with MALME-3M melanoma, in the assay on U251 CNS and in the assay on OVCAR-4 ovarian was more than 100 µM each time. Further, the TGI in the assay with HOP-92 NSCLC was more than 100 µM.
`CC(=O)NC1(c2cc3ccccc3s2)CCCCCC1`: the TGI in the assay with SR leukemia was 93.1 µM; in the assay on OVCAR-5 ovarian, more than 100 µM; with UO-31 renal it was more than 100 µM; with NCI-H522 lung, 39.1 µM; in the assay on U251 CNS, more than 100 µM; with OVCAR-4 ovarian, more than 100 µM. This compound also showed a TGI in the assay with HOP-92 NSCLC of more than 100 µM.
`COC1CN(C)C(=Nc2cccc3ccccc23)S1` (stereo unspecified): the TGI in the assay with SR leukemia, in the assay with OVCAR-5 ovarian, in the assay on MALME-3M melanoma, in the assay on NCI-H522 lung, in the assay with U251 CNS and in the assay on OVCAR-4 ovarian was more than 10 µM throughout. In the assay with HOP-92 NSCLC, the TGI is more than 10 µM.
`COc1cc(-c2cc(=O)c3c(O)c(CC=C(C)C)c(O)cc3o2)ccc1O`: the TGI is 41.9 µM in the assay with SR leukemia; more than 50 µM with OVCAR-5 ovarian; more than 50 µM in the assay with UO-31 renal; more than 50 µM with MALME-3M melanoma; more than 50 µM in the assay with U251 CNS; 43.6 µM in the assay with OVCAR-4 ovarian. Further, the TGI in the assay with HOP-92 NSCLC is more than 50 µM.
As for `CCOC(=O)C1(C(=O)OCC)OC(C)=NC1(C(=O)OC)C(=O)OC`, the TGI with SR leukemia, in the assay with OVCAR-5 ovarian, with UO-31 renal, in the assay on MALME-3M melanoma, in the assay with U251 CNS and in the assay with OVCAR-4 ovarian was more than 100 µM in each case. This compound yielded a TGI in the assay on HOP-92 NSCLC of more than 26.4 µM.
Turning to `Cn1c(=O)c2c(nc3n2CCCC(=O)N3CC(O)CCl)n(C)c1=O` (stereo unspecified), the TGI in the assay with SR leukemia, in the assay on OVCAR-5 ovarian, in the assay on UO-31 renal, with NCI-H522 lung, in the assay on U251 CNS and with OVCAR-4 ovarian was more than 100 µM each time. The same compound yielded a TGI with HOP-92 NSCLC of more than 100 µM.

Source of the values: PubChem BioAssay (NCI).
